US20100178330A1, “ASYMMETRIC LIPOSOMES AND USES IN MEDICAL FIELD THEREOF” (priority 2007, published 2010)

Columns and labels:
[1] = test system: M. tuberculosis H37Rv infected dTHP-1 cells; assay: Phagolysosome maturation: mycobacteria in acid compartments (Lyso Tracker Red / auramin confocal microscopy); format: cell-based; conditions: 3 mM EGTA added to cells stimulated with PS/PA liposomes; FIG. 7
[2] = test system: M. tuberculosis H37Rv infected dTHP-1 cells; assay: Phagolysosome maturation: mycobacteria in LAMP-1 expressing compartments (anti-LAMP-1 / auramin confocal microscopy); format: cell-based; conditions: EGTA added to cells stimulated with PS/PA liposomes; FIG. 8

In the case of O=C(O)CN(CCOCCOCCN(CC(=O)O)CC(=O)O)CC(=O)O [EGTA], the “effect on PS/PA liposome induced phagosome acidification” value [1] is reported as “inhibits the acidification process of phagosome restoring the initial conditions” and the “effect on PS/PA liposome induced phagolysosome maturation (LAMP-1)” value [2] is reported as “inhibits”.
